Reference: patent US5622960A, “Topoisomerase II inhibitors and therapeutic uses therefor” (The United States of America as represented by the …, priority 1992, dated 1997)

How the values were obtained:
Topoisomerase II = experiment: topoisomerase II inhibition: drug-induced DNA cleavage in presence of HL-60 extract or purified top 2; type: biochemical; conditions: for top 2 inhibition / top 2 activity (in words): DNA cleavage assays; for Topoisomerase II inhibition: class symbols without legend, HL-60 extract or purified top 2; for effect of hydroxyl substitution on top 2 activity: 1 versus 6, DMDP versus DMEP
From the text: Because the azatoxin skeleton is synthetically accessible, a large number of derivatives are readily prepared and screened for top 2 inhibitory activity in accordance with the present invention. Such screening can be effected by means of an in vitro assay which employs purified top 2 and ^32 P-end-labelled DNA. In such an assay, top 2 inhibition by a test substance results in DNA fragmentation which can be detected by agarose gel electrophoresis, as described by Fesen and Pommier, J. Biol. Chem. 19:11354-59 (1989); by the filter-binding assay described by Pommier et al., Biochem. 24:6410-16 (1985); or by the sodium dodecylsulfate precipitation assay employed by Nelson et al., Proc. Nat'l Acad. Sci. USA81: 1361-65 (1984).
(§1) Chemicals, and enzymes: Azatoxin and its derivatives, as well as the demethyldesoxypodophyllotoxin (DMDP) and demethylepipodophyllotoxin (DMEP), were synthesized by conventional methods. The compounds m-AMSA and mitoxantrone were obtained from the Drug Synthesis and Chemistry Branch, National Cancer Institute, Bethesda, Md. The compounds VP-16 and VM-26 were obtained from Bristol-Myers Company (Wallingford, Conn.). Drug stock solutions were made in dimethylsulfoxide at 10 mM. Further dilutions were made in distilled water. Various other reagents, including simian virus 40 (SV40) and c-myc human DNA inserts in plasmid pBR322, restriction endonucleases, DNA topoisomerase I, T4 polynucleotide kinase, calf intestine phosphatase, agarose and polyacrylamide/bis, were purchased from Bethesda Research Laboratories (Gaithersburg, Md.), from the American Type Culture Collection (Rockville, Md.) or from New England Biolabs (Beverly, Mass.). [Gamma-^32 P]ATP was purchased from New England Nuclear Research Products (Boston, Mass.).
(§2) DNA topoisomerase II was purified from mouse leukemia L1210 cell nuclei as described, for example, by Pommier et al. (1985), supra, and was stored at -70° C. in 40% (v/v) glycerol, 0.35 M NaCl, 5 mM MgCl2, 1 mM KH2 PO4, 0.2 mM dithiothreitol and 0.1 mM phenylmethanesulfonyl fluoride (pH 6.4). The purified enzyme yielded a single 170 kDa band after silver staining of SDS-polyacrylamide gels, in accordance with the description of Pommier et al., Cancer Res. 46: 3075-81 (1986).
(§3) Preparation of end-labeled DNA fragments: DNA fragments were 5' end-labeled as described, for example, by Fesen and Pommier (1989), supra. Briefly, native DNA was first linearized with a restriction enzyme, […] then the 5'-DNA termini were dephosphorylated with calf alkaline phosphatase and labeled with [gamma-^32 P]ATP using T4 polynucleotide kinase. For double-strand breaks assays using HL-60 nuclear extract, SV40 DNA was digested with BclI endonuclease and labeled at both DNA termini. For sequencing experiments, SV40 and c-myc DNAs were first 5'-end labeled at the XhoII and XbaI restriction sites, respectively. Then, in order to generate uniquely 5'-end-labeled fragments, labeled DNA was subjected to a second enzyme digestion, PflMI for SV40, and EcoRI plus HindIII for c-myc DNA. The resulting DNA fragments were separated by agarose gel electrophoresis and isolated by electroelution. Purification by phenol-chloroform extraction and ethanol precipitation were included between each step and at the end of the labeling procedures, pursuant to Pommier et al., J. Molec. Biol. 222: 909-24 (1991).
Topoisomerase II-induced DNA cleavage reactions: DNA fragments were equilibrated with or without drug in 10 mM Tris-HCl, pH 7.5, 50 mM KCl, 5 mM MgCl2 0.1 mM EDTA, 1 mM ATP and 15 μg/ml bovine serum albumin for 5 minutes before addition of purified topoisomerase II (40 to 70 ng) or HL-60 nuclear extract in 20 μl final reaction volume. Reactions were stopped by adding sodium dodecyl sulfate (SDS) to a final concentration of 1% and proteinase K to 400 μg/ml, followed by incubation for 1 hour at 40° C. […]

SV40 DNA = experiment: DNA unwinding (intercalation) assay with excess topoisomerase I; type: biochemical, simian virus 40; conditions: relaxed SV40 DNA, excess topoisomerase I; concentrations as high as 1 mM
Experimental: To assess DNA unwinding, see Pommier et al., Nucleic Acids Res. 15: 6713-31(1987), the DNA was relaxed first by treatment for 15 minutes with top 1 (20 units), after which the test agent was added. These steps were carried out at 37° C. DNA-agent-top 1 mixtures were incubated for an additional 30 minutes and then stopped as described above. Samples were then subjected to agarose gel electrophoresis as described above.
This was also the case for the 2 azatoxin isomers, 8 and 10, and for the demethylepipodophyllotoxins, DMDP and DMEP. Similar results were obtained with supercoiled DNA.

[1] = molecular target: T1, purified murine leukemia top 2 (Mus musculus, UniProt Q01320); experiment: Sequencing of topoisomerase II cleavage sites (SV40 and c-myc DNA); type: biochemical
T1 construct: single 170 kDa band on silver-stained SDS-PAGE
T1 sequence (Q01320 whole entry): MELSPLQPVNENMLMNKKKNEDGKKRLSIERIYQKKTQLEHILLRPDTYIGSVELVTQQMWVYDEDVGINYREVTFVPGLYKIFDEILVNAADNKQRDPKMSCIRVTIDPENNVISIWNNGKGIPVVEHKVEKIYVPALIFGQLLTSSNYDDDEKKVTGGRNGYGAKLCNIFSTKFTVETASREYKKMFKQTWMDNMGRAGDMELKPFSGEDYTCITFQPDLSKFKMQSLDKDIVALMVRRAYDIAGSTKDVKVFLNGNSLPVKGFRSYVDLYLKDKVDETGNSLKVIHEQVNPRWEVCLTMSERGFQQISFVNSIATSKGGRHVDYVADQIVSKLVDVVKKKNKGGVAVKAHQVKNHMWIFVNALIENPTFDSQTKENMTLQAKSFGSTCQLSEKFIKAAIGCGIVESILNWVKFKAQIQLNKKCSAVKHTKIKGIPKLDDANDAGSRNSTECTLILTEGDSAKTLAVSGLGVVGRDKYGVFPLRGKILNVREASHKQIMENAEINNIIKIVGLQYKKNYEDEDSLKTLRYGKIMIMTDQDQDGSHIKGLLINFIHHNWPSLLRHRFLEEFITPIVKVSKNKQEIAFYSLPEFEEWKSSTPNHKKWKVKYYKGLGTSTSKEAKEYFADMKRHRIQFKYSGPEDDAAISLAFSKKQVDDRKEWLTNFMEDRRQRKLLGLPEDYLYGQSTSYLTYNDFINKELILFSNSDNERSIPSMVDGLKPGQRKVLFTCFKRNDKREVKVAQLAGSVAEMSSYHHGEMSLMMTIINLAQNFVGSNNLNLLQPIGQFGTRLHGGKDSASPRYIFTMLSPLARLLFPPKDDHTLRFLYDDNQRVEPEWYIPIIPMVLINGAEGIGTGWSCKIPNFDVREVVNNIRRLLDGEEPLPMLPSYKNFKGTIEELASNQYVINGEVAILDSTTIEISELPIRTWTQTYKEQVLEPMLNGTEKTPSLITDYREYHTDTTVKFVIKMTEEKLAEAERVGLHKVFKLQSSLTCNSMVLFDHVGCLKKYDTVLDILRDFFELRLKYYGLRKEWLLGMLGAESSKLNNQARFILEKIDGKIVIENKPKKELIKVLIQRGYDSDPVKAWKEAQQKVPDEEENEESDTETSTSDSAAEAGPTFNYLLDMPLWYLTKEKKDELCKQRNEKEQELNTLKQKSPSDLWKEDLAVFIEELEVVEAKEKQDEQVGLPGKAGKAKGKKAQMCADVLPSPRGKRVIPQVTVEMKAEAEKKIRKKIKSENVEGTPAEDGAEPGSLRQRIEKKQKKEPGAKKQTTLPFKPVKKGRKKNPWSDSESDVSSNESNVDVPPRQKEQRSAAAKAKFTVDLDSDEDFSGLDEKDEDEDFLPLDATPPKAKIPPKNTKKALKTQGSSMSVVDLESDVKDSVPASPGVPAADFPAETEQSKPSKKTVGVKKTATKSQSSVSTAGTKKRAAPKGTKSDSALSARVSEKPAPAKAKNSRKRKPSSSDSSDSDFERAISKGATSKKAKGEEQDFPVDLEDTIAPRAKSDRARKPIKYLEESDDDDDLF
Experimental: as §1, §2, §3
Topoisomerase II-induced DNA cleavage reactions: DNA fragments were equilibrated with or without drug in 10 mM Tris-HCl, pH 7.5, 50 mM KCl, 5 mM MgCl2 0.1 mM EDTA, 1 mM ATP and 15 μg/ml bovine serum albumin for 5 minutes before addition of purified topoisomerase II (40 to 70 ng) or HL-60 nuclear extract in 20 μl final reaction volume. Reactions were stopped by adding sodium dodecyl sulfate (SDS) to a final concentration of 1% and proteinase K to 400 μg/ml, followed by incubation for 1 hour at 40° C.
For DNA sequence analysis, samples were precipitated with ethanol and resuspended in 2.5 μl loading buffer (80% formamide, 10 mM NaOH, 1 mM EDTA, 0.1% xylene cyanol and 0.1% bromophenol blue). Samples were heated to 90° C. and immediately loaded into DNA sequencing gels (6% polyacrylamide; 19:1, acrylamide:bis) containing 7M urea in (1×) TBE buffer. Electrophoresis was at 2500 V (60 W) for 4 hours. Gels were dried on 3M paper sheets and autoradiographed with Kodak XAR-2 film. See Pommier et al. (1991), supra.
Induction of top 2 cleavage by azatoxin was tested directly with the use of purified murine leukemia top 2. […] Sites of cleavage were also determined by DNA sequencing in the 5' flank of c-myc first intron.

[2] = tested on: top 2 (HL-60 nuclear extract); experiment: Induction of DNA double-strand breaks in SV40 DNA in presence of HL-60 nuclear extract; type: biochemical; conditions: up to 1 mM
Experimental: as §1
as §3, with “Purification by phenol-chloroform extraction and ethanol precipitation were included between each step and at the end of the labeling procedures, pursuant to Pommier et al., J. Molec. Biol. 222: 909-24 (1991).” left out
For agarose gel analysis, 3 μl (10×) loading buffer (0.3% bromophenol blue, 16% Ficoll, 10 mM Na2 HPO4) was added to each sample which was then heated at 65° C. for 1-2 minutes before loading into an agarose gel made in (1×) TBE (89 mM Tris, 89 mM boric acid, 2 mM EDTA, pH8), in accordance with Fesen & Pommier (1989), supra. […] The quantification of drug-induced DNA double-strand breaks in the presence of HL-60 nuclear extract was effected as described in the next paragraph.
Radioactive gels were counted in betascope 603 blot analyzer. […] Drug-induced cleavage was expressed as: [formula] where C. and T. are the counts for cleaved and total DNA, respectively, in presence of nuclear extract without drug.
Drug-induced DNA double-strand breaks were measured first in SV40 DNA in the presence of HL-60 nuclear extracts. […]

| top 2 inhibition / top 2 activity (in words) (Topoisomerase II) | Topoisomerase II inhibition (Topoisomerase II) | SMILES | DNA unwinding (SV40 DNA) | also measured |
| --- | --- | --- | --- | --- |
| inactive | .largecircle. | COc1cc([C@@H]2C3=C(C[C@H]4COC(=O)N42)c2cccc4cccc3c24)cc(OC)c1O (relative stereo) [Compound 7, 5,11a-trans-3-one-5,4, 11, 11a-tetrahydro-5-(3,5-dimethoxy-4-hydroxyphenyl)-1H, 10H-oxazol [3', 4':1,6]pyrido[1,2-b]acenapthylene] | – | – |
| inactivity | .largecircle. | COc1cc([C@@H]2c3c([nH]c4ccccc34)C[C@H]3COC(=O)N32)cc(OC)c1O (relative stereo) [Compound 8] | did not induce detectable DNA unwinding even at drug concentrations as high as 1 mM | – |
| – | .smallcircle. | COc1cc([C@@H]2c3[nH]c4ccccc4c3C[C@H]3COC(=O)N32)ccc1O [Compound 2, 5R, 11aS-3-One-5,4,11,11a-tetrahydro-5-(3-methoxy-4-hydroxyphenyl)-1H, 6H-oxazolo[3', 4': 1.6]pyrido[3,4-b]indole] | – | factor of reduction of top 2 activity by monodemethoxylation of pendant ring (Topoisomerase II; versus azatoxin): 10 |
| abolished the top 2 activity | .largecircle. | O=C1OC[C@@H]2Cc3c([nH]c4ccccc34)[C@@H](c3ccc(O)cc3)N12 [Compound 3, 5R, 11aS-3-one-5,4,11,11a-tetrahydro-5-(4-hydroxyphenyl)-1H, 6H-oxazolo[3',4':1,6]pyrido[3,4-b]indole] | – | – |
| – | .largecircle. | COc1cc([C@@H]2c3[nH]c4ccccc4c3C[C@H]3COC(=O)N32)cc(OC)c1OC [Compound 4, 5R,11aS-3-one-5,4,11,11a,tetrahydro-5-(3,4,5-trimethoxyphenyl)-1H, 6H-oxazolo[3',4':1,6]pyrido[3,4-b]indole] | – | – |
| – | .largecircle. | CS(=O)(=O)Nc1ccc([C@@H]2c3[nH]c4ccccc4c3C[C@H]3COC(=O)N32)cc1 [Compound 5] | – | – |
| measurable but not strong top 2 activity | – | COc1cc([C@@H]2c3[nH]c4ccccc4c3[C@@H](O)[C@H]3COC(=O)N23)cc(OC)c1O [Compound 6, 5R,11R,11aS-3-One-11-hydroxy-5,4,11,11a-tetrahydro-5-(3,5-dimethoxy-4-hydroxyphenyl)-1H, 6H-oxazolo[3'4:1,6]pyrido[3,4-b]indole] | – | effect of hydroxyl substitution on top 2 activity (Topoisomerase II): significantly decreases top 2 activity |

Continued, compound first:

| SMILES | top 2 inhibition / top 2 activity (in words) (Topoisomerase II) | Topoisomerase II inhibition (Topoisomerase II) | DNA unwinding (SV40 DNA) | also measured |
| --- | --- | --- | --- | --- |
| COc1cc([C@@H]2c3[nH]c4ccccc4c3C[C@@H]3COC(=O)N32)cc(OC)c1O [Compound 9, 5R,11aR-3-One-5,4,11,11a-tetrahydro-5-(3,5-dimethoxy-4-hydroxyphenyl)-1H, 6H-oxazolo[3'4':1,6']pyrido[3,4-b]indole] | inactive | .largecircle. | – | – |
| COc1cc([C@H]2c3[nH]c4ccccc4c3C[C@H]3COC(=O)N32)cc(OC)c1O [Compound 10, 5S, 11aS-3-One-5,4,11,11a-tetrahydro-5-(3,5-dimethoxy-4-hydroxyphenyl)-1H, GH-oxazolo[3'4':1,6]pyrido[3,4-b]indole] | inactive | .largecircle. | did not induce detectable DNA unwinding even at drug concentrations as high as 1 mM | – |
| COc1cc([C@@H]2c3cc4c(cc3C[C@H]3COC(=O)[C@@H]32)OCO4)cc(OC)c1O [DMDP, 4'-demethyl-4-desoxypodophyllotoxin, reference compound] | – | – | did not induce detectable DNA unwinding even at drug concentrations as high as 1 mM | top 2 cleavage sites induced (number/amount) ([1]; SV40 and c-myc DNA, purified murine top 2): induced less cleavage that azatoxin; top 2 cleavage pattern ([1]; compared with other top 2 inhibitors): at distinct cleavages sites |
| COc1cc([C@@H]2c3cc4c(cc3[C@@H](O)[C@H]3COC(=O)[C@H]23)OCO4)cc(OC)c1O [DMEP, 4'-demethylepipodophyllotoxin, reference compound] | – | – | did not induce detectable DNA unwinding even at drug concentrations as high as 1 mM | top 2 cleavage potency (in words) [1]: at least as potent as VP-16; effect of hydroxyl substitution on top 2 activity (Topoisomerase II): increases activity |
| COc1cc([C@@H]2c3cc4c(cc3[C@@H](O[C@@H]3O[C@@H]5CO[C@@H](C)O[C@H]5[C@H](O)[C@H]3O)[C@H]3COC(=O)[C@H]23)OCO4)cc(OC)c1O [VP-16, etoposide, reference compound] | – | – | – | suppression of DNA cleavage at high drug concentrations [2]: not suppressed at high drug concentrations (up to 1 mM) |
